Results filed as inconclusive are left out. Calls of active or inactive are those of the source.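 The calls were made as follows: active = compound lowering the normal-ribosome reporter at least twice as much as the humanized-ribosome reporter, growth loss under a set limit; inconclusive = no clear call, values can overlap the other calls; inactive = the rest.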
Legend:
Test in all cases: E. coli growth inhibition, wild-type GFP versus h24 humanized RFP strain, dose response, h24 mutant RFP vs wild-type GFP, cherry-pick (AID 977628)
[1] = tested on: E. coli h24 humanized mutant RFP strain growth, fluorescence, 24 h
[2] = tested on: E. coli mixed WT/h24 culture total growth, OD600, 24 h
[3] = tested on: E. coli WT GFP strain growth, fluorescence, 24 h

Row | SMILES | AC50 [1] [µM] | AC50 [2] [µM] | AC50 [3]
1 | CC(OC(=O)COc1ccccc1)C(=O)NC1CCCC1 (centres undefined) | > 100 | – | –
2 | O=C(C1Cc2ccccc2CN1C(=O)c1ccccc1)N1CCN(c2ccccc2)CC1 (centres undefined) | > 100 | – | –
3 | Cn1ccc2cc(-c3ccc4ncnc(NCc5cccs5)c4c3)ccc21 | > 100 | – | –
4 | O=C(Nc1ccc(-c2nnc3n2CCCCC3)cc1)c1cc2ccccc2o1 | > 100 | – | –
5 | O=C(NCCCn1ccnc1)c1sc2cc([N+](=O)[O-])ccc2c1Cl | > 100 | – | –
6 | O=C(O)CC1(CC(=O)Nc2ccc3sccc3c2)CCCCC1 | > 100 | – | –
7 | O=C(c1cccs1)c1c[nH]cc1-c1ccccc1 | > 100 | – | –
8 | Cc1cc(Br)cn2c(Cc3cccc(Cl)c3)c(-c3ccco3)nc12 | > 100 | – | –
9 | CC(=O)Nc1cccc(OCc2ccc([N+](=O)[O-])cc2)c1 | > 100 | – | –
10 | Cc1nc2ncnn2c(N2CCC(C(=O)NC3CCCC3)CC2)c1Cc1ccccc1 | > 100 | – | –
11 | S=C1SCN(Cc2cccnc2)CN1Cc1cccnc1 | > 100 | – | –
12 | Nc1ccc(C(=O)OCCc2ccccc2)cc1 | > 100 | – | –
13 | Cc1cccc(-n2cnc3cc([N+](=O)[O-])ccc32)c1 | > 100 | – | –
14 | O=C(Cn1cc(COc2c(F)c(F)cc(F)c2F)nn1)c1ccc(O)cc1 | – | > 100 | > 100 µM (inactive)
15 | COc1ccc(S(=O)(=O)N2CCCCN3[C@@H](CO)[C@H](c4ccc(C#CC(C)C)cc4)[C@@H]3C2)cc1 | – | 47 | > 100 µM (inactive)
16 | C(=C(c1ccccc1)c1ccccc1)c1ccccn1 | – | > 100 | > 100 µM (inactive)
17 | O=S(=O)(Nc1ccc(-c2cnco2)cc1)c1ccccc1 | – | > 100 | > 100 µM (inactive)
18 | O=c1c2ccccc2cnn1Cc1n[nH]c(=S)n1C1CC2CCC1C2 (centres undefined) | – | > 100 | > 100 µM (inactive)
19 | CCOC(=O)c1[nH]c2ccccc2c1NC(=O)c1ccc(Br)o1 | – | 41.7 | > 100 µM (inactive)
20 | S=C1SCN(Cc2cccnc2)CN1Cc1ccccc1 | – | > 100 | > 100 µM (inactive)
21 | Cc1c(C(=O)N(Cc2ccc(F)cc2)C2CCS(=O)(=O)C2)oc2ccccc12 (centres undefined) | – | > 100 | > 100 µM (inactive)

Row | SMILES | AC50 [1] [µM] | AC50 [2] [µM] | AC50 [3]
22 | Cc1ccc(C(=O)Nc2cccc(-c3cn4ccccc4n3)c2)cc1 | – | 51.5 | > 100 µM (inactive)
23 | CCOc1ccc(CCNC(=O)CCc2nc3ccccc3[nH]2)cc1OCC | – | > 100 | > 100 µM (inactive)
24 | CS(=O)(=O)N(CC(=O)N1CCc2ccccc2C1)c1ccc(Br)cc1 | – | 47 | > 100 µM (inactive)
25 | O=[N+]([O-])c1ccccc1Oc1ccc(Cl)c2cccnc12 | – | > 100 | > 100 µM (inactive)
26 | COC(=O)c1ccc2nc(-c3ccc(OC)c(OC)c3)c(Cc3ccc(C)cc3)n2c1 | – | > 100 | > 100 µM (inactive)
27 | COc1ccc(-n2ccnc2SCC(=O)NCc2ccccc2)c(OC)c1 | – | > 100 | > 100 µM (inactive)
28 | CCOC(=O)c1nc(C)sc1-c1ccnn1S(=O)(=O)c1cccc(Cl)c1 | – | 41.7 | > 100 µM (inactive)
29 | Cc1cccc(Nc2nc(-c3ccc(F)cc3)cs2)n1 | – | > 100 | > 100 µM (inactive)
30 | Cc1ccc(OCCn2c(=S)[nH]c3c(N)ncnc32)cc1 | – | 34.3 | > 100 µM (inactive)
31 | OCCN(Cc1ccccc1)Cc1ccc(Cl)cc1 | – | > 100 | > 100 µM (inactive)
32 | CCCc1nc2oc3c(NCCCN(C)C)ncnc3c2c2c1CCCC2 | – | > 100 | > 100 µM (inactive)
33 | COc1ccc(C(=O)Nc2ccc3oc(Cc4ccc(Cl)cc4)nc3c2)cc1OC | – | > 100 | > 100 µM (inactive)
34 | Cc1cc(C(=O)OCC(=O)Nc2cccc(S(N)(=O)=O)c2)c2ccccc2n1 | – | > 100 | > 100 µM (inactive)
35 | CCOc1ccc(OCC)c(NC(=O)CSc2nc3c(c(=O)n(C)c(=O)n3C)n2C(C)C)c1 | – | 45.5 | > 100 µM (inactive)
36 | Cc1ccccc1S(=O)(=O)N1C[C@H]2CON(C)[C@H]2C[C@H]1c1cccc(-c2ccc(C#N)cc2)c1 | – | > 100 | > 100 µM (inactive)
37 | O=C(CC(=O)c1cccs1)c1ccncc1 | – | > 100 | > 100 µM (inactive)
38 | COc1cc(NC(=O)CSCc2ccc(Cl)cc2Cl)c(C(=O)O)cc1OC | – | > 100 | > 100 µM (inactive)
39 | COc1ccc(OCC(=O)N2c3ccccc3CC2C)c([N+](=O)[O-])c1 (centres undefined) | – | > 100 | > 100 µM (inactive)
40 | Cc1cc(NC(=O)CSc2nccn2-c2cccc(C)c2C)no1 | – | > 100 | > 100 µM (inactive)
41 | COc1ccc(C2=Nc3ccccc3NC(=O)C2N(C(=O)c2ccnc3ccccc23)c2ccccc2)cc1 (centres undefined) | – | 43 | > 100 µM (inactive)
42 | COC(=O)c1ccc(CSc2nc(-c3ccccc3)cs2)o1 | – | 27.1 | > 100 µM (inactive)

Row | SMILES | AC50 [1] [µM] | AC50 [2] [µM] | AC50 [3]
43 | CC(C)Oc1ccc(C(CC(=O)O)NC(=O)C(Sc2ccccc2)c2ccccc2)cc1 (centres undefined) | – | > 100 | > 100 µM (inactive)
44 | CC(=O)Nc1ccc(-c2ccnc3c2CC(C)(C(=O)Nc2ccc4c(c2)OCO4)O3)cc1 (centres undefined) | – | > 100 | > 100 µM (inactive)
45 | O=C(NCc1nnnn1-c1ccc(Cl)cc1)c1ccc([N+](=O)[O-])o1 | – | > 100 | > 100 µM (inactive)
46 | COC(=O)c1c(C)oc(C)c1S(=O)(=O)NC(c1ccccc1)c1ccccc1 | – | 44.4 | > 100 µM (inactive)
47 | CC(C)(C)C1CCC(OCC(O)CN2CCN(c3ccccn3)CC2)CC1 (centres undefined) | – | 41 | > 100 µM (inactive)
48 | O=S(=O)(Nc1ccc(-c2nc3cccnc3s2)cc1)c1cc(F)ccc1F | – | > 100 | > 100 µM (inactive)
49 | O=C(NCc1ccc(-c2nc3ccccc3s2)cc1)c1ccco1 | – | 4.43 | > 100 µM (inactive)
50 | NC(=O)C1CCN(c2cc(Cl)ccc2[N+](=O)[O-])CC1 | – | > 100 | > 100 µM (inactive)
51 | O=C(Nc1cccc(S(=O)(=O)N2CCCCC2)c1)c1ccc(Cl)nc1 | – | > 100 | > 100 µM (inactive)
52 | O=C(CSc1ccc(-c2cccnc2)nn1)N1CCCc2ccccc21 | – | > 100 | > 100 µM (inactive)
53 | Cc1cc(NC(=O)COC(=O)CSCc2ccc(Cl)c(Cl)c2)no1 | – | > 100 | > 100 µM (inactive)
54 | NS(=O)(=O)c1cccc(NC(=O)CSc2nc3ccccc3n2-c2ccccc2)c1 | – | 38.1 | > 100 µM (inactive)
55 | CCc1ccc(NC(=O)COC(=O)CCCC2=NS(=O)(=O)c3ccccc3N2)cc1 | – | > 100 | > 100 µM (inactive)
56 | Cc1ccccc1CSCC(=O)Nc1ccccc1F | – | > 100 | > 100 µM (inactive)
57 | CCCCNC(=O)c1onc(CSc2cc(C)cc(C)c2)c1C(=O)O | – | 28 | > 100 µM (inactive)
58 | O=C(NCC(c1ccc(F)cc1)N1CCOCC1)c1ccc([N+](=O)[O-])o1 (centres undefined) | – | > 100 | > 100 µM (inactive)
59 | Cc1ccc(NC(=O)CN(C)S(=O)(=O)c2cccc3cccnc23)cc1F | – | > 100 | > 100 µM (inactive)
60 | O=C(CCc1ccccc1)Nc1sc2c(c1C(=O)O)CCCC2 | – | 52.3 | > 100 µM (inactive)
61 | COCC#Cc1ccc2c(c1)O[C@@H](CN(C)S(=O)(=O)c1cccc(F)c1)[C@@H](C)CN([C@H](C)CO)S2(=O)=O | – | 50 | > 100 µM (inactive)
62 | N#CCC(=O)Nc1ccc(C(=O)OCC(=O)Nc2ccc3ccccc3c2)cc1 | – | > 100 | > 100 µM (inactive)
63 | CC1(C(=O)NS(=O)(=O)c2cccc(Cl)c2)CCN1C(=O)C1(c2ccc(Cl)cc2)CCC1 (centres undefined) | – | > 100 | > 100 µM (inactive)

Row | SMILES | AC50 [1] [µM] | AC50 [2] [µM] | AC50 [3]
64 | COc1ccc(C(=O)Nc2ccc(Nc3ccccc3)cc2)cc1[N+](=O)[O-] | – | > 100 | > 100 µM (inactive)
65 | Cc1ccc2nc(N(CCN(C)C)C(=O)C3CCN(S(=O)(=O)c4cccs4)CC3)sc2c1 | – | > 100 | > 100 µM (inactive)
66 | O=C(Nc1ccc2c(c1)OCO2)c1cccc(S(=O)(=O)N2CCCC2)c1 | – | > 100 | > 100 µM (inactive)
67 | COc1ccc(C)cc1NC(=O)c1nn(C)cc1Br | – | > 100 | > 100 µM (inactive)
68 | Nc1[nH]c(C(=O)c2ccccc2)c(-c2ccc(Br)cc2)c1C(=O)c1cccs1 | – | > 100 | > 100 µM (inactive)
69 | COc1ccc(-c2nnn(CC(=O)N3CCN(c4ccccc4OC)CC3)n2)cc1OC | – | > 100 | > 100 µM (inactive)
70 | Cc1ccccc1COc1ccc(-c2nn[nH]n2)cc1 | – | 39.4 | > 100 µM (inactive)
71 | Cc1ccc(NC(=O)c2ccc(CSc3ccccn3)cc2)c(O)c1 | – | 22.2 | > 100 µM (inactive)
72 | O=C(CN(c1ccc(F)cc1)S(=O)(=O)c1ccccc1)Nc1ccccc1C(=O)O | – | > 100 | > 100 µM (inactive)
73 | CCN(c1ccccc1)S(=O)(=O)c1ccc(OC)c(OC)c1 | – | > 100 | > 100 µM (inactive)
74 | Cc1cc(NC(=O)CS(=O)(=O)c2cn(Cc3cccc(Br)c3)c3ccccc23)no1 | – | 40 | > 100 µM (inactive)
75 | O=C(NCc1ccc(Cl)cc1)c1csc(-c2cccnc2)n1 | – | 49.1 | > 100 µM (inactive)
76 | CCOC(=O)c1c(C)nsc1NCc1ccccc1 | – | 30.9 | > 100 µM (inactive)
77 | O=C(CCCn1c(=S)[nH]c2ccsc2c1=O)Nc1ccc2c(c1)OCCO2 | – | 46.7 | > 100 µM (inactive)
78 | CCOc1cccc2sc(N(CCCN(C)C)C(=O)c3ccc(S(=O)(=O)N4CCCCCC4)cc3)nc12 | – | > 100 | > 100 µM (inactive)
79 | Cc1ccc(C)c(-c2[nH]ncc2CN2CCCC(CO)(Cc3ccccc3C)C2)c1 (centres undefined) | – | > 100 | > 100 µM (inactive)
80 | COc1ccc(NC(=O)CN(c2ccccc2OC)S(=O)(=O)c2cccs2)cc1Cl | – | > 100 | > 100 µM (inactive)
81 | Cn1cnc(CCNC(=O)C[C@H]2CC[C@@H]3[C@H](COC[C@H](O)CN3C(=O)Nc3ccc(Cl)cc3)O2)c1 | – | > 100 | > 100 µM (inactive)

— PubChem BioAssay AID977628 (Broad Institute, 2014)
